target: HLA B*5301 (Homo sapiens, UniProt P01889, A329T/A93T/A95T/C349S/D201E/D98Y/E176V/E187L/E204Q/E69T/G107R/I218V/K202T/L105A/L119I/N104I/Q94N/R106L/R155S/R180L/S101N/S121R/S35A/S48A/T118I/V127L/V306I/V36M/Y140S/Y91F); experiment: not given; type: binding; details: not given

Sequence	Normalized average relative binding affinity (ARB), HLA B*5301
KXXXXXXXX [3064.0009]	0.0057
LXXXXXXXX [3064.0010]	0.14
MXXXXXXXX [3064.0011]	0.26
NXXXXXXXX [3064.0012]	0.027

target: HLA B*2705 (Homo sapiens, UniProt P01889, D138H/D201E/E176V/E204Q/G107R/H137Y/K202T/N104T/N87E/Q56L/Q94K/R106L/R155S/R180L/S101D/S121N/S48T/Y140D/Y33H/Y91C); experiment: not given; type: binding; details: positional scanning combinatorial 9-mer library; normalized to 1.0 for the best residue at each position

Sequence	Normalized average relative binding affinity (ARB), HLA B*2705
KXXXXXXXX [3064.0009]	0.26
LXXXXXXXX [3064.0010]	0.26
MXXXXXXXX [3064.0011]	0.44
NXXXXXXXX [3064.0012]	0.095

target: HLA A*3201 (Homo sapiens, UniProt P04439, A270S/D101S/D185E/E176V/E277Q/F133L/G103R/G107R/G231S/H175R/I121M/I218V/I322F/K168Q/L105A/L300P/L318F/M331R/P208A/P217A/Q94H/R106L/R138Q/S129P/T104I/T323A/T345S/V100E/V321M/V358M); experiment: biochemical; type: binding; details: not given

Sequence	Normalized average relative binding affinity (ARB), HLA A*3201
KXXXXXXXX [3064.0009]	1.0
LXXXXXXXX [3064.0010]	0.48
MXXXXXXXX [3064.0011]	0.76
NXXXXXXXX [3064.0012]	0.13

target: HLA B*5101 (Homo sapiens, UniProt P01889, A329T/A93T/A95T/C349S/D138N/D201E/D98Y/E187L/E204Q/E69T/G107R/I218V/K202T/L105A/L119W/N104I/Q94N/R106L/R155S/R180L/S101N/S121T/S35A/S48A/V306I/V36M/Y195H/Y91F); experiment: not given; type: binding; details: not given

Sequence	Normalized average relative binding affinity (ARB), HLA B*5101
KXXXXXXXX [3064.0009]	0.052
LXXXXXXXX [3064.0010]	0.41
MXXXXXXXX [3064.0011]	0.32
NXXXXXXXX [3064.0012]	0.19

target: HLA B*5801 (Homo sapiens, UniProt P01889, A329T/C349S/D201E/D98Y/E176V/E187L/E204Q/E69T/G107R/I218V/I90N/K202T/L105A/L119I/N104I/N87E/Q89R/Q94S/R106L/R155S/R180L/R86G/S101N/S121R/S35A/S48A/T118I/V127L/V306I/V36M/Y140S/Y91M); experiment: not given; type: binding; details: not given

Sequence	Normalized average relative binding affinity (ARB), HLA B*5801
KXXXXXXXX [3064.0009]	1.0
LXXXXXXXX [3064.0010]	0.53
MXXXXXXXX [3064.0011]	0.70
NXXXXXXXX [3064.0012]	0.056

target: HLA B*1503 (Homo sapiens, UniProt P01889, A329T/A93T/A95T/C349S/D201E/D98Y/E187L/E204Q/K202T/N87E/Q94N/R155S/R180L/S121R/S35A/V306I/V36M/Y140S/Y91S); experiment: biochemical; type: binding; details: not given

Sequence	Normalized average relative binding affinity (ARB), HLA B*1503
KXXXXXXXX [3064.0009]	0.46
LXXXXXXXX [3064.0010]	0.52
MXXXXXXXX [3064.0011]	0.40
NXXXXXXXX [3064.0012]	0.14

target: HLA A*6802 (Homo sapiens, UniProt P04439, A269V/D140Y/D185E/E176V/E277Q/E87N/F33Y/G231S/I121R/I166T/I218V/L180W/L300P/L318F/N151K/P208A/P217A/Q86R/R138H/R169H/S129P/T345S/V36M); experiment: not given; type: binding; details: not given

Sequence	Normalized average relative binding affinity (ARB), HLA A*6802
KXXXXXXXX [3064.0009]	0.013
LXXXXXXXX [3064.0010]	0.071
MXXXXXXXX [3064.0011]	0.75
NXXXXXXXX [3064.0012]	0.24

target: HLA B*1501 (Homo sapiens, UniProt P01889, A329T/A93T/A95T/C349S/D201E/D98Y/E187L/E204Q/E69M/E70A/K202T/N87E/Q94N/R155S/R180W/S121R/S35A/S48A/V306I/V36M/Y140S/Y91S); experiment: biochemical; type: binding; details: not given

Sequence	Normalized average relative binding affinity (ARB), HLA B*1501
KXXXXXXXX [3064.0009]	0.39
LXXXXXXXX [3064.0010]	0.61
MXXXXXXXX [3064.0011]	0.89
NXXXXXXXX [3064.0012]	0.22

target: HLA B*0702 (Homo sapiens, UniProt P01889); experiment: not given; type: binding; details: positional scanning combinatorial 9-mer library; normalized to 1.0 for the best residue at each position

Sequence	Normalized average relative binding affinity (ARB), HLA B*0702
KXXXXXXXX [3064.0009]	0.37
LXXXXXXXX [3064.0010]	0.23
MXXXXXXXX [3064.0011]	0.56
NXXXXXXXX [3064.0012]	0.15

target: HLA B*3501 (Homo sapiens, UniProt P01889, A329T/A93T/A95T/C349S/D201E/D98Y/E176V/E187L/E204Q/E69T/I218V/K202T/L119I/Q94N/R155S/R180L/S121R/S35A/S48A/T118I/V127L/V306I/V36M/Y140S/Y91F); experiment: not given; type: binding; details: not given

Sequence	Normalized average relative binding affinity (ARB), HLA B*3501
KXXXXXXXX [3064.0009]	0.050
LXXXXXXXX [3064.0010]	0.31
MXXXXXXXX [3064.0011]	0.90
NXXXXXXXX [3064.0012]	0.29

target: H-2 D^d (Mus musculus, UniProt P01900); experiment: not given; type: binding; details: not given
Sequence (P01900 whole entry, looked up): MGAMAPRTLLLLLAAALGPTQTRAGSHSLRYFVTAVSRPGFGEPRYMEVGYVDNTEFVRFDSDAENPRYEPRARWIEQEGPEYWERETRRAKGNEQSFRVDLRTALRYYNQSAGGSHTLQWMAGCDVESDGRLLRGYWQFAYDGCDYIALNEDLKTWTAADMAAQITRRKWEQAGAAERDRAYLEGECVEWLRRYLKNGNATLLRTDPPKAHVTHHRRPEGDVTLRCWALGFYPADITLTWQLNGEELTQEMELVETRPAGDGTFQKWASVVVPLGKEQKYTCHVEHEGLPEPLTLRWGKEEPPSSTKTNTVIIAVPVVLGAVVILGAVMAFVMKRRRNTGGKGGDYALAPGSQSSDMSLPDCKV

Sequence	Normalized average relative binding affinity (ARB), H-2 Dd
KXXXXXXXX [3064.0009]	0.18
LXXXXXXXX [3064.0010]	0.29
MXXXXXXXX [3064.0011]	0.75
NXXXXXXXX [3064.0012]	0.19

target: HLA B*5401 (Homo sapiens, UniProt P01889, A329T/C349S/D138N/D201E/E176V/E187T/E204Q/E69G/I76V/K202T/L119W/R155S/R180L/S121T/S35A/S48A/V127L/V306I/V36M/Y140L); experiment: not given; type: binding; details: not given

Sequence	Normalized average relative binding affinity (ARB), HLA B*5401
KXXXXXXXX [3064.0009]	0.037
LXXXXXXXX [3064.0010]	0.19
MXXXXXXXX [3064.0011]	1.0
NXXXXXXXX [3064.0012]	0.12

target: HLA A*3001 (Homo sapiens, UniProt P04439, D140H/D185E/E176W/F33S/G80R/H175R/K168Q/R138E/R41S); experiment: biochemical; type: binding; details: not given

Sequence	Normalized average relative binding affinity (ARB), HLA A*3001
KXXXXXXXX [3064.0009]	0.49
LXXXXXXXX [3064.0010]	0.081
MXXXXXXXX [3064.0011]	0.37
NXXXXXXXX [3064.0012]	0.065

target: H-2 K^k (Mus musculus, UniProt P04223); experiment: not given; type: binding; details: not given
Sequence (P01887 21-119): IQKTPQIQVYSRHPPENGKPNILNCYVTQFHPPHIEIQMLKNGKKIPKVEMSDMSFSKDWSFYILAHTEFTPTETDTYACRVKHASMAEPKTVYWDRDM
Sequence (P04223 22-369): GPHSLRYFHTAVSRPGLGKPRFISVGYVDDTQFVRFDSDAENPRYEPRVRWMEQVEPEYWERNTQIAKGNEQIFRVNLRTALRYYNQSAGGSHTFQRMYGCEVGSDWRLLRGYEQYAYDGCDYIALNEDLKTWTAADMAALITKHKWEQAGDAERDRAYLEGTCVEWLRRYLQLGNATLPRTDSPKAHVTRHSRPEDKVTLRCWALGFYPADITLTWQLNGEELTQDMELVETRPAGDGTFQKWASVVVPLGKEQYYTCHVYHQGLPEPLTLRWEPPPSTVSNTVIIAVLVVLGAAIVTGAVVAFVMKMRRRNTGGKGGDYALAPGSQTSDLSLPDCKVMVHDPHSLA

Sequence	Normalized average relative binding affinity (ARB), H-2 Kk
KXXXXXXXX [3064.0009]	0.082
LXXXXXXXX [3064.0010]	0.49
MXXXXXXXX [3064.0011]	0.78
NXXXXXXXX [3064.0012]	0.80

target: HLA A*0201 (Homo sapiens, UniProt P04439, D140Y/D185E/D98H/E176V/E277Q/G131W/G231S/I119V/I121R/I166T/I218V/L300P/L318F/N151K/N90K/P208A/P217A/Q86G/Q94H/R138H/R169H/T345S); experiment: not given; details: positional scanning combinatorial 9-mer library; normalized to 1.0 for the best residue at each position

Sequence	Normalized average relative binding affinity (ARB), HLA A*0201
KXXXXXXXX [3064.0009]	0.11
LXXXXXXXX [3064.0010]	0.054
MXXXXXXXX [3064.0011]	0.25
NXXXXXXXX [3064.0012]	0.067

target: HLA B*5802 (Homo sapiens, UniProt P01889, A329T/C349S/D201E/D98Y/E176V/E187L/E204Q/E69T/G107R/I218V/I90N/K202T/L105A/N104I/N87E/Q89R/Q94S/R106L/R155S/R180L/R86G/S101N/S121W/S35A/S48A/V127L/V306I/V36M/Y140S/Y91M); experiment: not given; type: binding; details: not given

Sequence	Normalized average relative binding affinity (ARB), HLA B*5802
KXXXXXXXX [3064.0009]	1.0
LXXXXXXXX [3064.0010]	0.044
MXXXXXXXX [3064.0011]	0.21
NXXXXXXXX [3064.0012]	0.063

target: H-2 D^b (Mus musculus, UniProt P01899); experiment: not given; type: binding; details: not given
Sequence (P01887 21-119): as the sequence (P01887 21-119) above
Sequence (P01899 25-362): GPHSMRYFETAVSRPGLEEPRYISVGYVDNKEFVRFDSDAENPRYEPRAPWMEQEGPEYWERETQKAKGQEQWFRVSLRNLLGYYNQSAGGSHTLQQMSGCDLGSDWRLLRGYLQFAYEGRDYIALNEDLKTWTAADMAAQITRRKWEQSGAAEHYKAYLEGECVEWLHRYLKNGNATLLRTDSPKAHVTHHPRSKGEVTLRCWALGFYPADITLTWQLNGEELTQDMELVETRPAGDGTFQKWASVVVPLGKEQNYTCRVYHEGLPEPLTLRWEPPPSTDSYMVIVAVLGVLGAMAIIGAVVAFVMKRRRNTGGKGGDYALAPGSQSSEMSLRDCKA

Sequence	Normalized average relative binding affinity (ARB), H-2 Db
KXXXXXXXX [3064.0009]	0.14
LXXXXXXXX [3064.0010]	0.20
MXXXXXXXX [3064.0011]	0.18
NXXXXXXXX [3064.0012]	0.31

target: HLA B*0801 (Homo sapiens, UniProt P01889, A93T/A95T/D138N/E176V/E187T/K202T/Q94N/R180D/S35A/V36M/Y33D/Y91F); experiment: biochemical; type: binding; details: not given

Sequence	Normalized average relative binding affinity (ARB), HLA B*0801
KXXXXXXXX [3064.0009]	0.039
LXXXXXXXX [3064.0010]	0.22
MXXXXXXXX [3064.0011]	0.79
NXXXXXXXX [3064.0012]	0.43
